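Test compounds were applied to cells in 96-well plates for 48 hours at 5 doses. Abbreviation: GI50, concentration required for 50% inhibition of growth. The concentration for full growth arrest is given as TGI.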
What was measured:
Assay in all cases: NCI tumour cell line growth inhibition, 48 h
UACC-62 melanoma = system: UACC-62 melanoma
HOP-92 NSCLC = system: HOP-92 NSCLC
CAKI-1 renal = system: CAKI-1 renal
CCRF-CEM leukemia = system: CCRF-CEM leukemia
M14 melanoma = system: M14 melanoma
K-562 leukemia = system: K-562 leukemia
HL-60(TB) leukemia = system: HL-60(TB) leukemia
MOLT-4 leukemia = system: MOLT-4 leukemia
SF-268 CNS = system: SF-268 CNS
PC-3 prostate = system: PC-3 prostate
SW-620 colon = system: SW-620 colon
EKVX NSCLC = system: EKVX NSCLC
HCC-2998 colon = system: HCC-2998 colon
OVCAR-4 ovarian = system: OVCAR-4 ovarian
HOP-62 NSCLC = system: HOP-62 NSCLC
HCT-116 colon = system: HCT-116 colon
A498 renal = system: A498 renal
MALME-3M melanoma = system: MALME-3M melanoma
SN12C renal = system: SN12C renal
MDA-MB-231 breast = system: MDA-MB-231 breast
OVCAR-5 ovarian = system: OVCAR-5 ovarian
SK-MEL-5 melanoma = system: SK-MEL-5 melanoma
SK-MEL-28 melanoma = system: SK-MEL-28 melanoma
NCI-H460 lung = system: NCI-H460 lung
SK-MEL-2 melanoma = system: SK-MEL-2 melanoma
BT-549 breast = system: BT-549 breast
TK-10 renal = system: TK-10 renal
OVCAR-3 ovarian = system: OVCAR-3 ovarian
HT29 colon = system: HT29 colon
DU-145 prostate = system: DU-145 prostate
ACHN renal = system: ACHN renal
NCI-H226 lung = system: NCI-H226 lung
SR leukemia = system: SR leukemia
U251 CNS = system: U251 CNS
NCI/ADR-RES ovarian = system: NCI/ADR-RES ovarian
T-47D breast = system: T-47D breast
A549 NSCLC = system: A549 NSCLC
IGROV1 ovarian = system: IGROV1 ovarian
RPMI-8226 leukemia = system: RPMI-8226 leukemia
SK-OV-3 ovarian = system: SK-OV-3 ovarian
OVCAR-8 ovarian = system: OVCAR-8 ovarian
NCI-H23 lung = system: NCI-H23 lung
UO-31 renal = system: UO-31 renal
COLO 205 colon = system: COLO 205 colon
HS 578T breast = system: HS 578T breast
MCF7 breast = system: MCF7 breast
MDA-MB-468 breast = system: MDA-MB-468 breast
UACC-257 melanoma = system: UACC-257 melanoma
SNB-75 CNS = system: SNB-75 CNS
SF-539 CNS = system: SF-539 CNS
KM12 colon = system: KM12 colon
NCI-H522 lung = system: NCI-H522 lung
LOX IMVI melanoma = system: LOX IMVI melanoma
SNB-19 CNS = system: SNB-19 CNS
HCT-15 colon = system: HCT-15 colon
SF-295 CNS = system: SF-295 CNS
786-0 renal = system: 786-0 renal

`COc1ccsc1/C=N/NC(=O)c1[nH]c2ccc(Br)cc2c1-c1ccccc1` was tested, and the GI50 (UACC-62 melanoma) was 306 nM, the TGI (UACC-62 melanoma) was 17500 nM and the GI50 (HOP-92 NSCLC) was 4060 nM. It also gave a TGI (HOP-92 NSCLC) of 29300 nM, a GI50 (CAKI-1 renal) of 464 nM and a TGI (CAKI-1 renal) greater than 56600 nM. It also gave a GI50 (CCRF-CEM leukemia) of 311 nM, a TGI (CCRF-CEM leukemia) of 5010 nM and a GI50 (M14 melanoma) of 316 nM. The TGI (M14 melanoma) was 13700 nM, the GI50 (K-562 leukemia) was 282 nM and the TGI (K-562 leukemia) was greater than 55700 nM. For the same compound, the GI50 (HL-60(TB) leukemia) was 223 nM, the TGI (HL-60(TB) leukemia) was 605 nM and the GI50 (MOLT-4 leukemia) was 403 nM. It also gave a TGI (MOLT-4 leukemia) of 11500 nM, a GI50 (SF-268 CNS) of 997 nM and a TGI (SF-268 CNS) of 39600 nM. The GI50 (PC-3 prostate) was 410 nM, the TGI (PC-3 prostate) was 39700 nM and the GI50 (SW-620 colon) was 413 nM. The TGI (SW-620 colon) was greater than 100000 nM, the GI50 (EKVX NSCLC) was 502 nM and the TGI (EKVX NSCLC) was greater than 100000 nM. It also gave a GI50 (HCC-2998 colon) of 622 nM, a TGI (HCC-2998 colon) of 14500 nM and a GI50 (OVCAR-4 ovarian) of 6340 nM. For the same compound, the TGI (OVCAR-4 ovarian) was greater than 100000 nM, the GI50 (HOP-62 NSCLC) was 468 nM and the TGI (HOP-62 NSCLC) was greater than 45100 nM. It also gave a GI50 (HCT-116 colon) of 369 nM, a TGI (HCT-116 colon) of 5510 nM and a GI50 (A498 renal) of 15300 nM. For the same compound, the TGI (A498 renal) was 53300 nM, the GI50 (MALME-3M melanoma) was 538 nM and the TGI (MALME-3M melanoma) was 25700 nM. The GI50 (SN12C renal) was 517 nM, the TGI (SN12C renal) was 8110 nM and the GI50 (MDA-MB-231 breast) was 437 nM. The TGI (MDA-MB-231 breast) was 13000 nM, the GI50 (OVCAR-5 ovarian) was 513 nM and the TGI (OVCAR-5 ovarian) was 68200 nM. For the same compound, the GI50 (SK-MEL-5 melanoma) was 315 nM, the TGI (SK-MEL-5 melanoma) was 1150 nM and the GI50 (SK-MEL-28 melanoma) was 925 nM. It also gave a TGI (SK-MEL-28 melanoma) of 40800 nM, a GI50 (NCI-H460 lung) of 362 nM and a TGI (NCI-H460 lung) of 11000 nM. For the same compound, the GI50 (SK-MEL-2 melanoma) was 308 nM, the TGI (SK-MEL-2 melanoma) was 10700 nM and the GI50 (BT-549 breast) was 739 nM. The TGI (BT-549 breast) was 5260 nM, the GI50 (TK-10 renal) was 7010 nM and the TGI (TK-10 renal) was 63900 nM. It also gave a GI50 (OVCAR-3 ovarian) of 407 nM, a TGI (OVCAR-3 ovarian) of 15300 nM and a GI50 (HT29 colon) of 271 nM. The TGI (HT29 colon) was 698 nM, the GI50 (DU-145 prostate) was 454 nM and the TGI (DU-145 prostate) was greater than 100000 nM. It also gave a GI50 (ACHN renal) of 710 nM, a TGI (ACHN renal) of 20700 nM and a GI50 (NCI-H226 lung) of 934 nM. The TGI (NCI-H226 lung) was 9950 nM, the GI50 (SR leukemia) was 369 nM and the TGI (SR leukemia) was greater than 100000 nM. It also gave a GI50 (U251 CNS) of 410 nM, a TGI (U251 CNS) of 20500 nM and a GI50 (NCI/ADR-RES ovarian) of 268 nM. For the same compound, the TGI (NCI/ADR-RES ovarian) was 739 nM, the GI50 (T-47D breast) was 449 nM and the TGI (T-47D breast) was 25700 nM. For the same compound, the GI50 (A549 NSCLC) was 634 nM, the TGI (A549 NSCLC) was greater than 54200 nM and the GI50 (IGROV1 ovarian) was 582 nM. For the same compound, the TGI (IGROV1 ovarian) was 20500 nM, the GI50 (RPMI-8226 leukemia) was 388 nM and the TGI (RPMI-8226 leukemia) was 3870 nM. It also gave a GI50 (SK-OV-3 ovarian) of 500 nM, a TGI (SK-OV-3 ovarian) of 34700 nM and a GI50 (OVCAR-8 ovarian) of 395 nM. The GI50 (NCI-H23 lung) was 568 nM, the TGI (NCI-H23 lung) was 25200 nM and the GI50 (UO-31 renal) was 579 nM. The TGI (UO-31 renal) was 34800 nM, the GI50 (COLO 205 colon) was 373 nM and the TGI (COLO 205 colon) was 1320 nM. The GI50 (HS 578T breast) was 338 nM, the TGI (HS 578T breast) was 65200 nM and the GI50 (MCF7 breast) was 332 nM. It also gave a TGI (MCF7 breast) of 16500 nM, a GI50 (MDA-MB-468 breast) of 273 nM and a TGI (MDA-MB-468 breast) of 870 nM. For the same compound, the GI50 (UACC-257 melanoma) was 2910 nM, the TGI (UACC-257 melanoma) was greater than 56900 nM and the GI50 (SNB-75 CNS) was 311 nM. It also gave a TGI (SNB-75 CNS) of 2260 nM, a GI50 (SF-539 CNS) of 233 nM and a TGI (SF-539 CNS) of 584 nM. The GI50 (KM12 colon) was 428 nM, the TGI (KM12 colon) was 13800 nM and the GI50 (NCI-H522 lung) was 187 nM. For the same compound, the TGI (NCI-H522 lung) was 781 nM, the GI50 (LOX IMVI melanoma) was 519 nM and the TGI (LOX IMVI melanoma) was 13700 nM. For the same compound, the GI50 (SNB-19 CNS) was 511 nM, the TGI (SNB-19 CNS) was greater than 100000 nM and the GI50 (HCT-15 colon) was 372 nM. The TGI (HCT-15 colon) was 16400 nM, the GI50 (SF-295 CNS) was 317 nM and the TGI (SF-295 CNS) was 13400 nM. For the same compound, the GI50 (786-0 renal) was 563 nM and the TGI (786-0 renal) was 12600 nM.

— PubChem BioAssay (NCI)
